{
  "source": "patent US20070134733A1",
  "about": "“Raman signature probes and their use in the detection and imaging of molecular processes and structures” (Parallax Biosystems, Inc., priority 2003, published 2007)",
  "note": "pEC50: −log10 of the molar value.",
  "data": [
    {"target": "T1, NADH-dependent enoyl acyl carrier reductase (FabI) (Escherichia coli, UniProt P0AEK4)", "T1 construct": "made in house; host or cells: recombinant bacteria (strain from Dr. Charles Rock, St. Jude Children's Research Hospital)", "T1 sequence (P0AEK4 whole entry)": "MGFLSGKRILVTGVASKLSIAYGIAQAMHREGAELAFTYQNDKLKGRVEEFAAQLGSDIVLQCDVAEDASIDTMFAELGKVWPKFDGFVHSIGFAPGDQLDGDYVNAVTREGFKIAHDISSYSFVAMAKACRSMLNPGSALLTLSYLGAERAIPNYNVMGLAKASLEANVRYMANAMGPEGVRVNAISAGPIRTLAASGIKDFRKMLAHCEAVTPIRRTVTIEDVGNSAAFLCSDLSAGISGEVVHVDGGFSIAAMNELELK", "assay": "FabI enzyme inhibition assay (NADH consumption, absorbance at 340 nm)", "assay_type": "biochemical, bacteria", "conditions": "purified HIS-tagged FabI enzyme, NADH and substrate (e.g. Malonyl CoA or Crotonyl CoA)", "text": "Prior to using the potential RSP compounds as probes to detect bacteria the modified compounds will be tested for their ability to inhibit FabI. As shown with numerous studies that have explored the structure activity relationship of other FabI inhibitor analogs, there is a good correlation between the ability of a compound to inhibit the enzyme and its affinity towards the enzyme (Seefeld et al., Bioorg. Med. Chem. Lett. 11 (2001) 2061-2065). Recombinant bacteria expressing a HIS-tagged FabI protein are available from Dr. Charles Rock at St. Jude Children's Research Hospital in Memphis Tenn. The overexpressed protein is readily purified as a bioactive enzyme using conventional Ni^2+ chromatographic methods (Heath & Rock, J. Biol. Chem. 270 (1995) 26538-26542). Enzyme assays will be performed as described by Bergler et al. (J. Biol. Chem. 269 (1994) 5493-5496). Briefly, purified HIS-tagged FabI enzyme is added to a reaction containing NADH and an appropriate substrate (e.g. Malonyl CoA or Crotonyl CoA). The reductase activity is assayed by monitoring the decrease in absorbance at 340 nm due to the consumption of NADH. The inhibitory activity of all RSPs will be compared with Compound 1.", "values": [
      {"smiles": "Nc1ccc(Cn2c3c(c4ccccc42)CCN(C(=O)c2ccc(O)cc2)C3)cc1", "note": "[Compound 1, reference compound]", "pEC50": 6.17},
      {"smiles": "N#Cc1ccc(Cn2c3c(c4ccccc42)CCN(C(=O)c2ccc(Cl)cc2)C3)cc1", "note": "[Compound 1A]", "pEC50": 5.60},
      {"smiles": "[2H]c1c([2H])c([2H])c(C(=O)N2CCc3c(n(Cc4ccc(F)cc4)c4ccccc34)C2)c([2H])c1[2H]", "note": "[Compound 1B]", "pEC50": 5.82},
      {"smiles": "N#Cc1ccc(Cn2c3c(c4ccccc42)CCN(C(=O)c2ccc(Br)cc2)C3)cc1", "note": "[Compound 1C]", "pEC50": 5.60},
      {"smiles": "CC#CCn1c2c(c3ccccc31)CCN(C(=O)c1ccc(Cl)cc1)C2", "note": "[Compound 1D]", "pEC50": 5.22},
      {"smiles": "[2H]C([2H])([2H])C([2H])([2H])n1c2c(c3ccccc31)CCN(C(=O)c1ccc(Cl)cc1)C2", "note": "[Compound 1E]", "pEC50": 5.11}
    ]}
  ]
}
